The results in this text go back to US9238658B2, “Substituted piperidinyl-carboxamide derivatives useful as SCD 1 inhibitors” (Janssen Pharmaceutica NV, priority 2011, dated 2016).

Where “and” joins values, the source holds several entries; their conditions need not be identical. Equal entries are not always repeated. Marks after values point to notes of the source that are not given here.

In data set [1] the target is SCD1 (Rattus norvegicus (Rat), UniProt P07308). The data set is described as follows: SCD1 enzymatic assay in rat liver microsomes (RLM). Format: biochemical.
Sequence of SCD1 (Rattus norvegicus (Rat), UniProt P07308) (P07308 whole entry): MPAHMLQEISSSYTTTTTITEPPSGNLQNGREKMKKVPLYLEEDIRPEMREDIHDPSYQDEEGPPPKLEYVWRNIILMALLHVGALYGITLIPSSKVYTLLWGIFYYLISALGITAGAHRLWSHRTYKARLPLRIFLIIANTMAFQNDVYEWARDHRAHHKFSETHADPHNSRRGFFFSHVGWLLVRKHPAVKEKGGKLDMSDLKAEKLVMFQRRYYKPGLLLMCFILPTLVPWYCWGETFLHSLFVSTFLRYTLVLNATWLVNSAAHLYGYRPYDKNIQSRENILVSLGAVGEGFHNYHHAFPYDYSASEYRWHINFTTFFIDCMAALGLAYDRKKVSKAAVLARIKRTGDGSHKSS
For data set [2], the target named is T1, SCD1 (Homo sapiens (Human), UniProt O00767). In words: SCD1 13C-palmitic acid assay in A431 cells. Format: cell-based. To be noted: read-out: A431 cells 13C-PA IC50. How it is done: Human epithelial carcinoma A431 cells were seeded at 100,000 cells/well in complete growth medium (DMEM, Cellgro #10-013-CM, 4.5 g/L glucose, 10% FBS) in the presence of 0.05 mg/mL human insulin (Hannas Pharmaceutical Supply Co Inc, Humanlin 100 U/ml, 4 mg/ml) in 96-well tissue culture plate. […] The cells were then returned to the tissue culture incubator (37° C. and 5% CO2) for 4 hrs. At the end of incubation, the cells were washed three times with 200 μL/well Hanks buffer (HBSS) and then stored at −20° C. until extraction.
T1 sequence (O00767 whole entry): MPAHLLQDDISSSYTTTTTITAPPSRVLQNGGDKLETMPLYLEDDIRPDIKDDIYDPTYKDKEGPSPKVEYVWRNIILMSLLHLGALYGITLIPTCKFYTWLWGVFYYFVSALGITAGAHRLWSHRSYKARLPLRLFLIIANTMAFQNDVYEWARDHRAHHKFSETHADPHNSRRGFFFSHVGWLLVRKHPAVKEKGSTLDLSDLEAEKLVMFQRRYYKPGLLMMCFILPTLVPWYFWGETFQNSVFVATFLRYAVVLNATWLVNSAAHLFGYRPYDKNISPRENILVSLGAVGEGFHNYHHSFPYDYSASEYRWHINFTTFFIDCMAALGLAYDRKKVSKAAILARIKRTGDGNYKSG
For fatty acid extraction, after thawing out the plates, 40 μL of 1N KOH (containing 5 μM of internal standard 7,7,8,8-D4 palmitate) was added to each well and cell plates were incubated at 37° C. for 30 minutes. […] Acetonitrile (100 μL) was then added to extract fatty acids, followed by centrifugation at 3000 rpm for 10 minutes. 75 μL of extract was then transferred to a new glass vial in a 96-well cluster plate. 5 μL was injected for LC/MS analysis for detection of ^13C-palmitic acid and ^13C-palmitoleic acid. Formation of product ^13C-palmitoleic acid was determined as an index of SCD1 activity.
LC/MS analysis was performed as following. An Agilent 1100 Liquid Chromatographic System (Palo Alto, Calif.) consisting of a binary pump, a degasser and an autosampler was used. Separation of free fatty acids was performed on a Zorbax SB—C8 column (2.1×50 mm, particle size=3.5 μm). An isocratic elution was carried out with 10 mM triethylamine acetate in water:acetonitrile (3:7) at a flow rate of 0.3 mL/min. The column temperature was set at 30° C. and the sample injection volume was 5 μL. The LC run cycle was 4 min, A Micromass triple-quadrupole Quattro Micro mass […] (Waters, Beverly, Mass.) was interfaced with the LC system through a Z-spray electrospray ion source and was operated in the negative ion mode. Nitrogen was used as nebulizing gas, desolvation gas and cone curtain gas and argon was chosen as collision gas. The triple quadrupole MS source parameters were set as follows: capillary voltage, 3200V; cone voltage, 25V; extractor 2V, source temperature, 120° C.; desolvation temperature, 300° C.; cone gas flow, 50 L/h; and desolvation gas flow, 700 L/h. […] MassLynx software version 4.0 was used for system control and data processing. The signal of U—^13C-palmitoleic acid was normalized to an internal standard.

The target of data set [3] is T1, SCD1. The data set is described as follows: SCD1 14C-palmitate assay in A431 cells. To be noted: read-out: A431 cells 14C-PA IC50. Format: cell-based. How it is done:
Human epithelial carcinoma A431 cells were seeded at 400,000 cells per well in 48-well tissue culture plate and treated with 2 cycles of fasting in low glucose medium (DMEM, Cellgro #10-014-CV, 1 g/L glucose, 2% Charcoal Filtered FBS) for 24 hours; and re-feeding with high glucose medium for 24 hours (DMEM, Cellgro #10-013-CM, 4.5 g/L glucose, 10% Charcoal Filtered FBS and 0.05 mg/mL Lilly Humulin R, Cat.#, HI-210). Prior to running the assay, the cells were washed twice with high glucose medium (400 μL), followed by addition of 250 μL assay buffer (DMEM, 4.5 g/L glucose, 0.05 mg/mL Human Insulin, 0.1% Fatty Acid Free BSA) to each well. Then, 100 μL of assay buffer containing 20 μM Palmitic Acid, 0.05 μCi ^14C Palmitic Acid (Perkin Elmer, NEC075H) and test compound (at selected concentration) was added to each well. The cells were then Incubated at 37° C. and 5% CO2 tissue culture incubator for 4 hours, followed by extensive washes with pre-chilled PBS. The cell plates were then frozen at −20° C. overnight. After thawing out the plates, 100 μL of 1N KOH was added to each well and the plates were incubated at 37° C. for 30 mins. Cell lysates were transferred to 1 mL Eppendorf tubes and incubated at 95° C. for 1 hour, followed by addition of 10 μL formic acid and 220 μL acetonitrile. The tubes were then centrifuged at 12,000 rpm and the supernatant dried under N2 for 2-3 hours. Dried extract was re-suspended in 60 μL hexane and loaded onto TLC plates (pre-coated with 10% AgNO3 in acetonitrile). The TLC plates were placed into glass running chamber containing 200 mL running solution (100 mL running solution: 92.5 mL chloroform, 6 mL methanol, 750 μL acetic acid, 750 μL dH2O). After running, the TLC plates were air dried and scanned on Bioscan AR-2000 for quantification of ^14C-palmitioleate and ^14C-palmitate peaks. Area under the curve of the peaks were used to calculate product/substrate ratio, an index of SCD1 activity.

A short description of data set [4]: 10-day diet-induced obese C57bl/6 mice study. It counts as in vivo. To be noted: DIO C57BL/6J mice, oral, 10 days. The method, then:
Male DIO C57BL/6J mice from Taconic were maintained on high fat diet D12492 containing 60% kCal of mostly saturated fats (Research Diets Inc.) for 4 week from 6-week old. Test compounds were prepared in 0.5% hydroxypropyl methyl cellulose for oral dosing at 10 mg/kg or 30 mg/kg, either q.d. or b.i.d., as noted in the results table below. After 10-days of treatment, body weight change are recorded. Plasma liver enzyme levels (ALT and AST) were also determined.
Compound #6 of the present invention was tested according to the procedure as described above, with results as listed in Table 4, below. In the results presented below, * indicates a calculated p value<0.05 vs. vehicle-treated group.

Usually IC50 stands for the point on the concentration scale where inhibition reaches its midpoint. A word on the inhibition: it is the relative decrease from the control value, in per cent. Turning to `Cc1csc(NC(=O)N2CCC(c3noc4ccc(F)cc34)CC2)n1` [Compound 6, 4-(5-fluorobenzo[d]isoxazol-3-yl)-N-(4-methylthiazol-2-yl)-piperidine-1-carboxamide], the IC50 is 140 nM in data set [1], 54 nM in data set [2] and 290 nM in data set [3]. Also, the “% Inh. @ 1 μM” value in data set [1] (1 μM test compound) is 95% and 77%. The molecule also displayed an inhibition at 1 µM in data set [1] (1 μM test compound) of 88%. For the same molecule, the “Body weight change (g)” value in data set [4] (10 mg/kg, q.d) is listed as 0.00 ± 0.36* g; in data set [4] (30 mg/kg, bid) it was −0.69 ± 0.38 * g; in data set [4] (30 mg/kg, q.d), 0.01 ± 0.24* g. Also, the “Plasma ALT (U/L)” value in data set [4] (10 mg/kg, q.d) worked out at 57 ± 7 U/L; in data set [4] (30 mg/kg, bid), 41 ± 3 U/L; in data set [4] (30 mg/kg, q.d), 68 ± 12 U/L. The “Plasma AST (U/L)” value is given as 89 ± 7 U/L in data set [4] (10 mg/kg, q.d); 102 ± 17 U/L in data set [4] (30 mg/kg, bid); 93 ± 7 U/L in data set [4] (30 mg/kg, q.d).
